In PubChem BioAssay AID248 (DTP/NCI, 2004):
Several values for one entry are separate records, joined by “and”; a condition that tells them apart may be missing. Equal entries are not always repeated. Toxic doses and inconclusive results are not listed. Cut-off read from the data, not from the text of the source: active = T/C of 150% or more; inactive = T/C below 125%.

Test system: L1210 leukemia ip in BDF1 mice, survival T/C
Experiment: NCI In Vivo Anticancer Drug Screen. Data for tumor model L1210 Leukemia (intraperitoneal) in B6D2F1 (BDF1) mice
Conditions: endpoint: mean survival time, higher = longer survival
In short: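 Tumor cells were implanted, animals were treated, and survival was followed. The result divides the treated measurement by the vehicle-control measurement.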

[1] = dose: 50.0 mg/kg/injection, schedule: Q01DX009 (ip), vehicle: Klucel (hydroxypropylcellulose) (HPC)
[2] = dose: 100.0 mg/kg/injection, schedule: Q01DX009 (ip), vehicle: Klucel (hydroxypropylcellulose) (HPC)
[3] = dose: 100.0 mg/kg/injection, schedule: Q01DX001 (ip), vehicle: saline
[4] = dose: 200.0 mg/kg/injection, schedule: Q01DX001 (ip), vehicle: saline
[5] = dose: 400.0 mg/kg/injection, schedule: Q01DX001 (ip), vehicle: saline
[6] = dose: 50.0 mg/kg/injection, schedule: Q01DX009 (ip), vehicle: saline with Tween-80
[7] = dose: 100.0 mg/kg/injection, schedule: Q04DX003 (ip), vehicle: saline with Tween-80
[8] = dose: 100.0 mg/kg/injection, schedule: Q04DX003 (ip), vehicle: Klucel (hydroxypropylcellulose) (HPC)
[9] = dose: 200.0 mg/kg/injection, schedule: Q04DX003 (ip), vehicle: Klucel (hydroxypropylcellulose) (HPC)
[10] = dose: 400.0 mg/kg/injection, schedule: Q04DX003 (ip), vehicle: Klucel (hydroxypropylcellulose) (HPC)
[11] = dose: 100.0 mg/kg/injection, schedule: Q04DX002 (ip), vehicle: saline
[12] = dose: 200.0 mg/kg/injection, schedule: Q04DX002 (ip), vehicle: saline
[13] = dose: 400.0 mg/kg/injection, schedule: Q04DX002 (ip), vehicle: saline
[14] = dose: 200.0 mg/kg/injection, schedule: Q01DX009 (ip), vehicle: Klucel (hydroxypropylcellulose) (HPC)
[15] = dose: 100.0 mg/kg/injection, schedule: Q04DX002 (ip), vehicle: Klucel (hydroxypropylcellulose) (HPC)
[16] = dose: 200.0 mg/kg/injection, schedule: Q04DX002 (ip), vehicle: Klucel (hydroxypropylcellulose) (HPC)

Measured: T/C

Cc1cc(C)c2ccc(N)nc2n1
inactive: dose: 9.5 mg/kg/injection, schedule: Q01DX001 (ip), vehicle: saline 86 % of control | dose: 19.0 mg/kg/injection, schedule: Q01DX001 (ip), vehicle: saline 91 % of control | dose: 38.0 mg/kg/injection, schedule: Q01DX001 (ip), vehicle: saline 101 % of control

CC(=O)Nc1ccc2c(c1)Cc1cccc(NC(C)=O)c1-2
inactive: dose: 25.0 mg/kg/injection, schedule: Q01DX009 (ip), vehicle: Klucel (hydroxypropylcellulose) (HPC) 95 % of control | [1] 103 % of control | [2] 103 % of control

CCN(CC)C(=S)[S][Bi]([S]C(=S)N(CC)CC)[S]C(=S)N(CC)CC
inactive: dose: 100.0 mg/kg/injection, schedule: Q01DX001 (ip), vehicle: steriod suspending solution 112 % of control | dose: 200.0 mg/kg/injection, schedule: Q01DX001 (ip), vehicle: steriod suspending solution 91 % of control | dose: 400.0 mg/kg/injection, schedule: Q01DX001 (ip), vehicle: steriod suspending solution 96 % of control

CC(C)=Cc1ccno1
inactive: [3] 100 % of control | [4] 100 % of control | [5] 100 % of control

CCN(CC)CCCOC(=O)N(Cc1ccc(Cl)cc1)C1CC1
inactive: dose: 25.0 mg/kg/injection, schedule: Q01DX009 (ip), vehicle: saline with Tween-80 100 % of control | [6] 93 % of control | [7] 102 % of control

C=C(C)COc1c(Cl)cc(Cl)cc1C=Nc1ccccc1
inactive: [6] 101 % of control | dose: 100.0 mg/kg/injection, schedule: Q01DX001 (ip), vehicle: saline with Tween-80 94 % of control | dose: 100.0 mg/kg/injection, schedule: Q01DX009 (ip), vehicle: saline with Tween-80 90 % of control | dose: 200.0 mg/kg/injection, schedule: Q01DX001 (ip), vehicle: saline with Tween-80 89 % of control | dose: 200.0 mg/kg/injection, schedule: Q01DX009 (ip), vehicle: saline with Tween-80 104 % of control

COC(=O)C1(C)CCCC2c3cc4c(cc3CCC21)C(=O)CC(C)O4 (configuration not stated)
inactive: dose: 400.0 mg/kg/injection, schedule: Q01DX001 (ip), vehicle: carboxymethylcellulose (CMC) 86 % of control

CC(=O)OCC(Cl)C(Cl)CCl (configuration not stated)
inactive: [8] 96 % of control | [9] 95 % of control | [10] 95 % of control

Cc1ncc([N+](=O)[O-])n1CCN1CCOCC1
inactive: [11] 102 % of control | [12] 96 % of control | [13] 98 % of control

CCCC[N+]12CC=C3COC(=O)C(C)(O)C(C)(O)C(C)C(=O)OC(CC1)C32 (configuration not stated)
inactive: [1] 92 % of control | [2] 95 % of control | [14] 100 % of control

C=C1C(=O)OCC1C(=O)O (configuration not stated)
inactive: dose: 75.0 mg/kg/injection, schedule: Q01DX001 (ip), vehicle: saline 98 % of control

O=S(=O)(OCC1CC2C=CC1C2)c1ccc(Br)cc1 (configuration not stated)
inactive: dose: 100.0 mg/kg/injection, schedule: Q04DX003 (ip), vehicle: other 86 % of control | dose: 200.0 mg/kg/injection, schedule: Q04DX003 (ip), vehicle: other 89 % of control | dose: 400.0 mg/kg/injection, schedule: Q04DX003 (ip), vehicle: other 89 % of control

CCOC(=O)C1=C(C)CC(=O)NC1=O
inactive: [3] 115 % of control | dose: 100.0 mg/kg/injection, schedule: Q04DX003 (ip), vehicle: saline 108 % of control | [4] 114 % of control | dose: 200.0 mg/kg/injection, schedule: Q04DX003 (ip), vehicle: saline 90 % of control | [5] 111 % of control | dose: 400.0 mg/kg/injection, schedule: Q04DX003 (ip), vehicle: saline 90 % of control

CCCCCCCCCCCCCCCCCCn1cnc2ncnc(Cl)c21
inactive: dose: 12.5 mg/kg/injection, schedule: Q01DX005 (ip), vehicle: other 107 % of control | dose: 25.0 mg/kg/injection, schedule: Q01DX005 (ip), vehicle: other 102 % of control | dose: 50.0 mg/kg/injection, schedule: Q01DX005 (ip), vehicle: other 98 % of control | dose: 100.0 mg/kg/injection, schedule: Q01DX005 (ip), vehicle: other 106 % of control | dose: 200.0 mg/kg/injection, schedule: Q01DX005 (ip), vehicle: other 93 % of control

C#CC1(N2CCCCC2)CCCCC1
inactive: [15] 102 % of control | [16] 98 % of control

COc1c(C)c(C)c(OC)c(CC(=O)O)c1C
inactive: [7] 93 % of control | dose: 200.0 mg/kg/injection, schedule: Q04DX003 (ip), vehicle: saline with Tween-80 90 % of control | dose: 400.0 mg/kg/injection, schedule: Q04DX003 (ip), vehicle: saline with Tween-80 93 % of control

Nc1cccc(C(=O)NCc2cccnc2)c1
inactive: [11] 110 % of control | [12] 107 % of control | [13] 104 % of control

c1cc[c]([Sn]([c]2ccccc2)([c]2ccccc2)[n]2cnc3cncnc32)cc1
inactive: dose: 5.0 mg/kg/injection, schedule: Q01DX001 (ip), vehicle: other 111 % of control | dose: 10.0 mg/kg/injection, schedule: Q01DX001 (ip), vehicle: other 100 % of control

Cc1ccc(C(Br)C2=CC(C)(C)c3ccccc3C2=O)cc1 (configuration not stated)
inactive: [2] 106 % of control | [8] 106 % of control | [14] 101 % of control | [9] 104 % of control | dose: 400.0 mg/kg/injection, schedule: Q01DX009 (ip), vehicle: Klucel (hydroxypropylcellulose) (HPC) 98 % of control | [10] 104 % of control

COc1ccc(CCN)cc1F
inactive: [15] 98 % of control | [16] 102 % of control

CCC1(O)C(=O)OCc2c1cc1n(c2=O)CCC1 (configuration not stated)
inactive: dose: 12.5 mg/kg/injection, schedule: Q01DX001 (ip), vehicle: saline 113 % of control | dose: 25.0 mg/kg/injection, schedule: Q01DX001 (ip), vehicle: saline 106 % of control and 110 % of control | dose: 50.0 mg/kg/injection, schedule: Q01DX001 (ip), vehicle: saline 102 % of control | [3] 101 % of control | [4] 98 % of control

OC/C(I)=C(I)\C(I)=C(\I)CO
inactive: dose: 25.0 mg/kg/injection, schedule: Q04DX002 (ip), vehicle: Klucel (hydroxypropylcellulose) (HPC) 90 % of control | dose: 50.0 mg/kg/injection, schedule: Q04DX002 (ip), vehicle: Klucel (hydroxypropylcellulose) (HPC) 90 % of control | [15] 94 % of control and 101 % of control

C[C@]12CCC(=O)C=C1[C@@H](F)C[C@@H]1[C@@H]2[C@@H](O)C[C@@]2(C)[C@H]1CC[C@]2(O)C(=O)CO
inactive: dose: 25.0 mg/kg/injection, schedule: Q01DX015 (ip), vehicle: carboxymethylcellulose (CMC) 106 % of control | dose: 50.0 mg/kg/injection, schedule: Q01DX015 (ip), vehicle: carboxymethylcellulose (CMC) 96 % of control | dose: 100.0 mg/kg/injection, schedule: Q01DX001 (sc), vehicle: steriod suspending solution 117 % of control | dose: 100.0 mg/kg/injection, schedule: Q01DX015 (ip), vehicle: carboxymethylcellulose (CMC) 110 % of control | dose: 200.0 mg/kg/injection, schedule: Q01DX001 (sc), vehicle: steriod suspending solution 89 % of control | dose: 200.0 mg/kg/injection, schedule: Q01DX015 (ip), vehicle: carboxymethylcellulose (CMC) 98 % of control | dose: 400.0 mg/kg/injection, schedule: Q01DX001 (sc), vehicle: steriod suspending solution 100 % of control | dose: 400.0 mg/kg/injection, schedule: Q01DX015 (ip), vehicle: carboxymethylcellulose (CMC) 86 % of control | dose: 800.0 mg/kg/injection, schedule: Q01DX001 (sc), vehicle: steriod suspending solution 105 % of control | dose: 800.0 mg/kg/injection, schedule: Q01DX015 (ip), vehicle: saline 102 % of control

OC(c1ccccc1)C1(N2CCCCC2)CCCCC1 (configuration not stated)
inactive: dose: 100.0 mg/kg/injection, schedule: Q01DX001 (ip), vehicle: Klucel (hydroxypropylcellulose) (HPC) 94 % of control | dose: 200.0 mg/kg/injection, schedule: Q01DX001 (ip), vehicle: Klucel (hydroxypropylcellulose) (HPC) 100 % of control | dose: 400.0 mg/kg/injection, schedule: Q01DX001 (ip), vehicle: Klucel (hydroxypropylcellulose) (HPC) 96 % of control

CCCCNC(=O)Nc1cc(Cl)c(Cl)cc1C
inactive: [15] 91 % of control | [16] 97 % of control | dose: 400.0 mg/kg/injection, schedule: Q04DX002 (ip), vehicle: Klucel (hydroxypropylcellulose) (HPC) 97 % of control
